Source: patent US10494611B2, “Compositions comprising a mitofusin inhibitor for promoting cell reprogramming and a use thereof” (KOREA RESEARCH INSTITUTE OF BIOSCIENCE AND BIOTECHNOLOGY, priority 2014, dated 2019)
Entries after “also recorded” stand apart in the source; their conditions may differ. Values belong to the molecule of their own block, whether it stands above or below them.

Assays:
MEFs [1] = experiment: Reprogramming of MEFs by OSKM transduction, AP staining; type: cell-based, mouse
human Mfn1 promoter = experiment: Human Mfn1 promoter reporter assay (luciferase) in 293T cells, REDOX library screening; type: cell-based; conditions: 293T cells with human Mfn1 promoter reporter, 10 μM, 48 hours
Procedure: (§1) In one specific embodiment of the present invention, mouse and human Mfn1 promoter reporter (Genecopoeia) cells were prepared using Mfn1−/−MEFs and 293T cells, respectively, and a Screen-Well™ REDOX library containing the 84 compounds was treated at a concentration of 10 μM by for 48 hours.
(§2) Mfn1-KO MEFs were stably transfected with an Mfn1 promoter reporter construct (Genecopoeia) cells of mouse and human were produced using Mfn1−/− MEFs and 293T cells (human embryonic renal cells) and then treated with the Screen-Well™ REDOX library, containing 84 compounds, for 48 hours in a concentration of 10 nM to 10 μM. Mfn1 promoter activity was measured in the culture supernatants with the Secrete-Pair™ Dual Luminescence and Gaussia Luciferase Assay Kits (Genecopoeia) using a SpectraMax microplate reader.

MEFs [2] = experiment: Mitochondrial morphology of reprogramming cultures (Mito-EYFP); type: cell-based, mouse; conditions: OSKM, 50 μM Mdivi1, Mito-EYFP, D7
Procedure: Cells were fixed in 4% paraformaldehyde for 10 minutes at room temperature (RT) and then in MeOH for 15 minutes at −20° C., after which their permeability was increased with 0.3% Triton X-100 in PBS for 30 min and blocked with 4% BSA for 2 hours at RT. The samples were stained with the anti-Tom20 antibody diluted in a blocking buffer at 4° C. overnight. After washing, the cells were stained with Alexa 488-conjugated secondary antibodies (Invitrogen) for 45 minutes at RT. The nuclei were counterstained with 10 μg/ml DAPI. For live cell imaging, the cells were incubated with 200 nM MitoTracker® Red CMXRos (Invitrogen) for 30 minutes at 37° C. Florescent images were analyzed under an IX51 microscope (Olympus) or an Axiovert 200M microscope (Carl Zeiss).

mouse Mfn1 promoter = experiment: Mouse Mfn1 promoter reporter assay (luciferase), REDOX library screening; type: cell-based; conditions: Mfn1−/− MEFs carrying Mfn1 promoter reporter, 10 μM, 48 hours
Procedure: as §1, §2

Structure (SMILES): O=CC[C@@H](O)[C@H](O)[C@H](O)CO [2-DG, 2-deoxy-D-glucose]
cellular reprogramming (AP+ colonies) with glycolysis inhibitor (MEFs [1]; OSKM reprogramming of MEFs, D11): substantially decreased

Structure (SMILES): CC1=C(C)C(=O)C(CC[C@](C)(O)CCC[C@H](C)CCC[C@H](C)CCCC(C)C)=C(C)C1=O [D-α-tocopheryl quinone]
human Mfn1 promoter activity (relative luciferase activity) (human Mfn1 promoter): down-regulated; also recorded: best inhibit

Structure (SMILES): COc1cc(-n2c(=S)[nH]c3ccccc3c2=O)c(Cl)cc1Cl [Mdivi1]
higher reprogramming efficiency of Mfn1−/− and Mfn2−/− MEFs (MEFs [1]; OSKM, 50 μM Mdivi1, AP+ colonies D11): blocked
fragmented mitochondrial morphology of Mfn1−/− and Mfn2−/− MEFs (MEFs [2]): blocked

mouse Mfn1 promoter activity (relative luciferase activity) (mouse Mfn1 promoter): top 2 upregulated
Structure (SMILES): Cc1coc2c1C(=O)C(=O)c1c-2ccc2c1CCCC2(C)C [Tanshinone IIA]

Structure (SMILES): C[C@]12C=CC(=O)C=C1CC[C@@H]1C2=CC[C@]2(C)[C@@H](C(=O)CN3CCN(c4cc(N5CCCC5)nc(N5CCCC5)n4)CC3)CC[C@@H]12.O=C(O)/C=C\C(=O)O [U74389G maleate, 21-[4-(2,6-di-1-pyrrolidinyl-4-pyrimidinyl)-1-piperazinyl]pregna-1,4,9[11]-triene-3,20-dione maleate]
human Mfn1 promoter activity (relative luciferase activity) (human Mfn1 promoter; maleate): down-regulated; also recorded: best inhibit
mouse Mfn1 promoter activity (relative luciferase activity) (mouse Mfn1 promoter; listed as 21-[4-(2,6-di-1-pyrrolidinyl-4-pyrimidinyl)-1-piperazinyl]pregna-1,4,9[11]-trien, maleate): top 3 downregulated
mouse Mfn1 promoter activity (relative luciferase activity) (mouse Mfn1 promoter; maleate): down-regulated; also recorded: inhibited

mouse Mfn1 promoter activity (relative luciferase activity) (mouse Mfn1 promoter): top 2 upregulated
Structure (SMILES): CN(C/C=C/C#CC(C)(C)C)Cc1cccc2ccccc12.Cl [erbinafine.HCl]

Structure (SMILES): CCCCCCCCCCCCCCCC(=O)OC/C=C(C)/C=C/C=C(C)/C=C/C1=C(C)CCCC1(C)C [retinyl palmitate]
human Mfn1 promoter activity (relative luciferase activity) (human Mfn1 promoter): down-regulated; also recorded: best inhibit

mouse Mfn1 promoter activity (relative luciferase activity) (mouse Mfn1 promoter): top 3 downregulated
mouse Mfn1 promoter activity (relative luciferase activity) (mouse Mfn1 promoter; listed as tetramethyl pyrazine): down-regulated
Structure (SMILES): Cc1nc(C)c(C)nc1C [tetramethylpyrazine]
